Reference: article PMC10161260 (The Journal of antimicrobial chemotherapy, 2023)
Where two headings read alike, the source gives them in different places. Values belong to the molecule of their own block, whether it stands above or below them.

What was measured:
[1] = type: in vivo, human; details: for Cmax in PBMCs: all participants, geometric mean (95% CI)
[2] = type: in vivo, human; details: for Mean peak concentration in rectal tissue: 48 h after the first dose; for Time of peak mean concentration in rectal tissue: after the first dose; for Time rectal tissue concentrations remained measurable after the second dose: in vivo
[3] = parameters: species or system human; details: in vivo
[4] = parameters: species or system human; details: in vivo; for Antiretroviral drug detection, glans swab / Antiretroviral drug detection, urethral swab: male, human
clinical [5] = test: clinical; parameters: species or system human; details: in vivo; for Cmax: po
HIV = details: cited from earlier work
[6] = stated as known, no reference given; cited from earlier work
[7] = Rectal swab / rectal secretion drug concentrations after two oral doses in MSM; type: in vivo, human; details: for Mean concentration on rectal swabs at 48 h: 48 h after first dose (elvitegravir peak), geometric mean; for Concentration on rectal swabs by 120 h: LLOQ 1 ng/swab; for Time of peak mean concentration on rectal swabs: hours after first dose
clinical [8] = test: clinical; parameters: species or system human; details: in vivo; for AUC0–120h in plasma / Cmax / Tmax / Mean plasma concentration by 72 h (48 h after the second dose): po
[9] = cited from earlier work

- Cmax in PBMCs [1]: 552 (297–1026) fmol/10^6 PBMC
- Tmax in PBMCs ([1]; hours after first dose): 28 h
- Mean peak concentration in rectal tissue [2]: 15.3 fmol/mg
- Time of peak mean concentration in rectal tissue [2]: 48 h
- Time rectal tissue concentrations remained measurable after the second dose [2]: at least 96 h
Structure (SMILES): CC(Cn1cnc2c(N)ncnc21)OCP(=O)(O)OP(=O)(O)OP(=O)(O)O (stereo in doubt) [tenofovir diphosphate]

- Urine concentration within 48 h after the second dose [3]: undetectable
- Antiretroviral drug detection, urine ([3]; male, human): 32/70 (46%)
- Detected in urine specimens ([3]; male, human): 46%
- Mean urine concentration ([3]; male, human): less than 1 μg/mL
- Detection in penile secretions [4]: not consistently detected
- Antiretroviral drug detection, glans swab [4]: 2/71 (3%)
- Antiretroviral drug detection, urethral swab [4]: 3/71 (4%)
- AUC0–120h in rectal tissue (clinical [5]): 20.53 (5.14) ng × h/mg
- Mean rectal tissue concentration relative to PAEC95 (clinical [5]; male, human): did not reach more than twice the PAEC95
- concentration at 2 h (clinical [5]; male, human): 270 ng/g
- Cmax (clinical [5]; male, human): 290 ng/g
- Mean concentration on rectal swabs at 48 h [7]: 2.1 ng/swab
- Concentration on rectal swabs by 120 h [7]: undetectable in most rectal swabs
- Plasma AUC0–120h of bictegravir relative to elvitegravir (clinical [8]; human): more than twice
- AUC0–120h in plasma (clinical [8]): 94 437 (8748) ng × h/mL
- Mean plasma concentration 96 h after dosing (clinical [8]; male, human, 96 h): 273 (95% CI: 164–456) ng/mL
- Cmax (clinical [8]; male, human): 1.77 µg/mL
- Tmax (clinical [8]; male, human): 2 h
Structure (SMILES): O=C(NCc1c(F)cc(F)cc1F)c1cn2c(c(O)c1=O)C(=O)N1[C@H]3CC[C@H](C3)O[C@@H]1C2 [bictegravir]
- 95% protein-adjusted effective concentration (PAEC95) (HIV): 162 ng/mL
- Protein binding in plasma [6]: highly protein bound

Structure (SMILES): C[C@H]1CO[C@@H]2Cn3cc(C(=O)NCc4ccc(F)cc4F)c(=O)c(O)c3C(=O)N12 [cabotegravir]
- Tissue-to-plasma ratio [9]: low tissue-to-plasma ratio

- Antiretroviral drug detection, urine ([3]; male, human): 4/73 (5%)
- Detected in urine specimens ([3]; male, human): 5%
- Detection in penile secretions [4]: not consistently detected
- Antiretroviral drug detection, glans swab [4]: 9/80 (11%)
- Antiretroviral drug detection, urethral swab [4]: 14/68 (21%)
- AUC0–120h in rectal tissue (clinical [5]): 469.78 (321.92) ng × h/mg
- Tmax (clinical [5]; male, human): 4 h
- concentration at 2 h (clinical [5]; male, human): 1070 ng/g
- Cmax (clinical [5]; male, human): 3310 ng/g
- Mean concentration on rectal swabs at 48 h [7]: 1085 ng/swab
- Concentration on rectal swabs by 120 h [7]: undetectable in most rectal swabs
- Elvitegravir rectal swab concentration at 48 h relative to bictegravir ([7]; P = 0.029): over 500 times
- Time of peak mean concentration on rectal swabs [7]: 48 h
- AUC0–120h in plasma (clinical [8]): 44 472 (4341) ng × h/mL
- Mean plasma concentration by 72 h (48 h after the second dose) (clinical [8]): undetectable
- Cmax (clinical [8]; male, human): 2.01 µg/mL
- Tmax (clinical [8]; male, human): 28 h
Structure (SMILES): COc1cc2c(cc1Cc1cccc(Cl)c1F)c(=O)c(C(=O)O)cn2[C@H](CO)C(C)C [elvitegravir]
- 95% protein-adjusted inhibitory concentration (PAIC95) (HIV): 45 ng/mL
- Protein binding in plasma [6]: highly protein bound

- Cmax in PBMCs [1]: 7549 (6528–8729) fmol/10^6 PBMC
- Tmax ([1]; male, human, PBMCs, oral, 200 mg): 26 h
- Mean peak concentration in rectal tissue [2]: 64.1 fmol/mg
- Time of peak mean concentration in rectal tissue [2]: 48 h
- Time rectal tissue concentrations remained measurable after the second dose [2]: at least 96 h
Structure (SMILES): Nc1nc(=O)n([C@@H]2CS[C@H](COP(=O)(O)OP(=O)(O)OP(=O)(O)O)O2)cc1F [emtricitabine triphosphate]

- Detected in urine specimens (tenofovir and emtricitabine together) ([3]; male, human): 273/276
- Time of peak mean rectal tissue emtricitabine concentration (clinical [5]; male, human): 4 h
- Time of peak mean concentration on rectal swabs [7]: 48 h
- Mean emtricitabine concentration on rectal swabs at 48 h (peak) ([7]; participants also receiving bictegravir): 57 ng/swab
- Mean emtricitabine concentration on rectal swabs at 48 h (peak) ([7]; participants also receiving boosted elvitegravir): 241 ng/swab
- Mean plasma concentration by 72 h (48 h after the second dose) (clinical [8]): undetectable
Structure (SMILES): Nc1nc(=O)n([C@@H]2CS[C@H](CO)O2)cc1F [emtricitabine]

- Detected in urine specimens (tenofovir and emtricitabine together) ([3]; male, human): 273/276
- Tenofovir concentration in rectal tissue (clinical [5]; male, human): less than 1 ng/mg
- Time of peak mean concentration on rectal swabs [7]: 48 h
- Mean tenofovir concentration on rectal swabs at 48 h (peak) ([7]; not different between regimens): 16 ng/swab
Structure (SMILES): C[C@H](Cn1cnc2c(N)ncnc21)OCP(=O)(O)O [tenofovir]
